Measurements taken from publication PMC6345745, “Discovery of novel hit compounds with broad activity against visceral and cutaneous Leishmania species by comparative phenotypic screening” (Scientific Reports, 2019).

Tests used:
[1] = tested on: intracellular L. donovani amastigotes (strain Ld1S); experiment: High content assay on intramacrophagic L. donovani amastigotes in primary mouse macrophages; format: cell-based, Leishmania donovani; conditions: for SI (selectivity index): EC50 (BMDM) versus EC50 (L. donovani Am); for EC50: Leishmania donovani, BMDM, 72 h, read-out: EC50 (L. donovani Am)
Method: (§1) Bone marrow derived macrophages (BMDMs) at day 6 of differentiation were resuspended in complete medium supplemented with CSF-1 (25 ng/ml) and deposited in 384 well plates (culture-treated, flat-optically clear bottom, Cellcarrier plate, PerkinElmer). Five hours later purified Am were added.
(§2) One day after macrophage infection, Leish-Box compounds dissolved in DMSO were added for 3 days at 10 or 1 μM final concentration resulting in a 1% DMSO final concentration. Each compound was tested in quadruplicates. Controls included mock (no liquid added), vehicle control (DMSO), positive control (anti-leishmanial amphotericin B, AmB), and cytotoxicity control (cycloheximide, Cyclo).
(§3) The high content assay used to assess the anti-leishmanial activity against intramacrophagic L. donovani amastigotes corresponds to the L. amazonensis HCS protocol up to the drug incubation step. Then, BMDM cultures were fixed with 4% paraformaldehyde solution in PBS for 1 hour at room temperature, washed with PBS, blocked with 50 mM NH4Cl-PBS for 15 min, and saturated for 30 min with saponin-PBS (0.1 mg/ml) containing 5% normal goat serum. All washing steps were performed with saponin-PBS. Cells were incubated for 45 min with saponin-PBS with 0.25% gelatin and an immune serum obtained from a L. donovani infected hamster (dilution 1/1000), washed twice, and further incubated for 45 min with saponin-PBS containing 0.25% gelatin and 2 µg/ml conjugated AlexaFluor 488 goat anti hamster IgG (Jackson ImmunoReasearch). Finally, after additional washing, Hoechst 33342 (5 µg/ml) and HCS CellMask Blue stain (HCS, Invitrogen Molecular Probes, 2 µg/ml) were added for 30 min at room temperature, washed twice with PBS and stored at 4 °C until acquisition. For hit compounds EC50s were calculated using SigmaPlot software (four parameter logistic equation) following application of a range of concentrations (from 10 to 0.16 µM) performed in duplicates.
(§4) Images of macrophage cultures were acquired using the automatic Opera QEHS confocal imaging system (Perkin Elmer Technology). For the L. donovani HCA, a 40x water objective and two lasers (488 nm for immuno-stained parasites; 405 nm for Hoechst-stained parasite and macrophage nuclei, and HCS-stained macrophage cytoplasm) were used for acquiring 285 fields for the entire well or 30 fields per well in routine HCA conditions. For L. amazonensis HCA, a 10x air objective and three lasers (561 nm for mCherry-expressing parasites; 488 nm for LysoTracker-containing PVs; 405 nm for Hoechst-stained macrophage nuclei) were used to acquire images from entire wells (15 fields).
Images were transferred to the Columbus Conductor™ Database (Perkin Elmer Technologies) and analyzed using the integrated Image analysis building blocks. For L. donovani HCA, we developed a new script based on object segmentation subroutines detecting successively the macrophage nucleus, the macrophage cytoplasm, the parasites and their nuclei, with their associated features (number, size and object intensity). All methods used for segmentation are described in the Columbus Manuel. Analysis was simplified by only taking into account the number of macrophages and the number of amastigotes per macrophage, which was the common way to estimate the anti-leishmanial activity in screening campaigns. For the sake of clarity, both toxicity against host cells and activity against the parasites of tested compounds were normalized to DMSO-treated controls and expressed as percent of DMSO controls. The viability index is calculated by establishing a ratio of macrophage numbers between compound- and DMSO-treated cells, while the anti-leishmanial activity is represented by the number of amastigotes per macrophage. Compounds causing a 50% or higher reduction of macrophage density were considered toxic. […] For the L. amazonensis HCA, we applied the method we described previously. […]

[2] = tested on: BMDM (bone marrow derived macrophages); experiment: Host cell toxicity (macrophage number) in the L. donovani high content assay; format: cell-based, mouse; conditions: for EC50: Mus musculus, BMDM, 72 h, toxicity against macrophages, 3 days, concentrations from 10 to 0.16 µM
Method: Primary mouse macrophages were prepared as described. Briefly, bone marrow cells were recovered from BALB/c mice and were resuspended in complete DMEM medium (PAN Biotech) supplemented with 75 ng/ml of recombinant mouse CSF-1 (ImmunoTools). Cells were distributed in hydrophobic Petri dishes (Greiner 664161, 1,5 × 10^7 in 11 ml) and incubated at 37 °C in a 7.5% CO2 air atmosphere for 6 days (with mCSF-1 supplemented medium added at day 3).
as §1, §2, §3
Images were transferred to the Columbus Conductor™ Database (Perkin Elmer Technologies) and analyzed using the integrated Image analysis building blocks. For L. donovani HCA, we developed a new script based on object segmentation subroutines detecting successively the macrophage nucleus, the macrophage cytoplasm, the parasites and their nuclei, with their associated features (number, size and object intensity). All methods used for segmentation are described in the Columbus Manuel. Analysis was simplified by only taking into account the number of macrophages and the number of amastigotes per macrophage, which was the common way to estimate the anti-leishmanial activity in screening campaigns. For the sake of clarity, both toxicity against host cells and activity against the parasites of tested compounds were normalized to DMSO-treated controls and expressed as percent of DMSO controls. The viability index is calculated by establishing a ratio of macrophage numbers between compound- and DMSO-treated cells, while the anti-leishmanial activity is represented by the number of amastigotes per macrophage. Compounds causing a 50% or higher reduction of macrophage density were considered toxic. […] For the L. amazonensis HCA, we applied the method we described previously. Quantitative values obtained for host cell and parasite numbers were exported to Excel and SigmaPlot for further analysis and graphical representations.

[3] = tested on: intracellular L. amazonensis amastigotes (strain LV79); experiment: High content assay on intramacrophagic L. amazonensis amastigotes in primary mouse macrophages; format: cell-based, Leishmania amazonensis; conditions: hit compounds of Figure 6
Method: as §1, §2
The high content assay used to assess the anti-leishmanial activity against intramacrophagic amastigotes of L. amazonensis has been described elsewhere. Briefly, after 3 days of co-incubation with compounds, BMDM nuclei and parasitophorous vacuoles (PVs) were stained with Hoechst 33342 (Invitrogen Molecular Probes, 12 µM) and LysoTracker Green (Life Technologies, DND-26, 1 µM), respectively. Acquisition of images was performed on live cell cultures.
as §4

[4] = tested on: L. donovani promastigotes (Ld1S); experiment: Resazurin reduction viability assay on cultured L. donovani promastigotes; format: cell-based; conditions: Leishmania donovani, read-out: EC50 against L. donovani promastigotes
Method: Figure 4 Leish-Box screening results for cultured L. donovani promastigotes. A resazurin-based viability assay was used to assess anti-leishmanial activity of Leish-Box compounds against Ld1S promastigotes. Two days after compound addition to parasite cultures at logarithmic growth phase, resazurin was added for an additional 24 hours before reading the level of resofurin fluorescence using an Infinite™ M200 plate reader (Tecan™). […] The outer and inner circles represent respectively 80% and 50% threshold activity values.
Anti-leishmanial activity of compounds was evaluated using an adapted resazurin reduction assay[53] with cell-cycling promastigotes from logarithmic growth phase. Compounds were tested in quadruplicates at 20, 4 and 0.8 μM at 26 °C in 384-well plates. DMSO vehicle and AmB (1 μM) were used as controls. Two days later, resazurin was added (10 μL per well at 25 μg/mL) and fluorescence intensity was measured 24 h later using a Tecan Safire 2 reader (excitation 558 ± 4.5 nm; emission 585 ± 10 nm). Following background subtraction (complete parasite culture medium with resazurin in absence of parasites), data were expressed as percentages of growth compared to DMSO-treated controls (POC).

Row | Structure (SMILES) | amastigote survival compared to DMSO control ([1]; positive control, 3 days) | toxicity toward the host cell ([2]; BMDMs recovered after three days of treatment, normalized to mock) | SI (selectivity index) [1] | EC50 [1] | EC50 [2] | activity on L. amazonensis intramacrophagic amastigotes [3] | EC50 [4]
1 | C[C@@H]1[C@H](O)[C@@H](C)/C=C/C=C/C=C/C=C/C=C/C=C/C=C/[C@H](O[C@@H]2O[C@H](C)[C@@H](O)[C@H](N)[C@@H]2O)C[C@@H]2O[C@](O)(C[C@@H](O)C[C@@H](O)[C@H](O)CC[C@@H](O)C[C@@H](O)CC(=O)O[C@H]1C)C[C@H](O)[C@H]2C(=O)O [AmB, amphotericin B, reference compound] | 0.8% | some toxicity | – | – | – | – | –
2 | COc1ccc(NS(=O)(=O)c2cc(NC(=O)c3ccc([N+](=O)[O-])s3)ccc2OC)cc1 [TCMDC-143163] | – | – | > 10 | 0.79 µM | > 10 µM | active | –
3 | O=C(Nc1ccc(S(=O)(=O)N2CCCC2)cc1)c1ccc([N+](=O)[O-])s1 [TCMDC-143169] | – | – | > 1,5 | 6.88 µM | > 10 µM | active | –
4 | COc1ccc(Oc2ccc(C(C)N(C)c3ncc4c(N)nc(N)nc4n3)cc2)cc1 (stereo not shown) [TCMDC-143295] | – | – | > 10 | 0.48 µM | > 10 µM | active | 0.08 µM
5 | O=C(Nc1cccc(S(=O)(=O)Nc2ccc(Br)cc2)c1)c1ccc([N+](=O)[O-])s1 [TCMDC-143563] | – | – | > 10 | 0.59 µM | 6.25 µM | active | –
6 | Cc1ccc(NC(=O)c2ccc([N+](=O)[O-])s2)cc1S(=O)(=O)N1CCOCC1 [TCMDC-143577] | – | – | – | 1.25 µM | 5.09 µM | active | –
